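Each compound was tested at five concentrations against cells in 96-well plates for 48 hours. The concentration for full growth arrest is given as TGI.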
Columns and labels:
Test in all cases: NCI anticancer screen, dose series, 48 h
[1] = system: CCRF-CEM leukemia
[2] = system: RXF 393 renal
[3] = system: IGROV1 ovarian
[4] = system: NCI-H23 lung
[5] = system: UACC-257 melanoma
[6] = system: ACHN renal
[7] = system: EKVX NSCLC
[8] = system: NCI-H522 lung
[9] = system: LOX IMVI melanoma
[10] = system: M14 melanoma
[11] = system: OVCAR-5 ovarian
[12] = system: SK-MEL-28 melanoma
[13] = system: A549 NSCLC
[14] = system: TK-10 renal
[15] = system: HT29 colon
[16] = system: UO-31 renal
[17] = system: OVCAR-8 ovarian
[18] = system: HL-60(TB) leukemia
[19] = system: SK-MEL-5 melanoma
[20] = system: NCI-H226 lung

Compound | TGI [1] [µM] | TGI [2] [µM] | TGI [3] [µM] | TGI [4] [µM] | TGI [5] [µM] | TGI [6] [µM] | TGI [7] [µM] | TGI [8] [µM] | TGI [9] [µM] | TGI [10] [µM] | TGI [11] [µM] | TGI [12] [µM] | TGI [13] [µM] | TGI [14] [µM] | TGI [15] [µM] | TGI [16] [µM] | TGI [17] [µM] | TGI [18] [µM] | TGI [19] [µM] | TGI [20] [µM]
CCOC(=O)NC(Nc1ncccn1)(C(=O)OCC)C(F)(F)F (stereo not drawn) | > 100 | > 100 | > 100 | > 100 | > 100 | > 100 | > 100 | > 100 | > 100 | > 100 | > 100 | > 100 | > 100 | > 100 | > 100 | > 100 | > 100 | > 100 | > 100 | –
CSc1nc(NC2OCC(O)C(O)C2O)c(N)c(=O)[nH]1 (stereo not drawn) | > 100 | > 100 | > 100 | > 100 | > 100 | – | > 100 | > 100 | > 100 | – | > 100 | > 100 | > 100 | – | > 100 | > 100 | > 100 | > 100 | > 100 | > 100
Cc1ccc2c(c1)C(=O)N(N(C)C)CC(=O)N2 | > 100 | – | > 100 | > 100 | > 100 | > 100 | > 100 | > 100 | > 100 | > 100 | > 100 | > 100 | > 100 | > 100 | > 100 | > 100 | > 100 | > 100 | > 100 | > 100
Cc1cc(C)n(-c2nsc3ccccc23)n1 | > 100 | > 100 | > 100 | > 100 | > 100 | > 100 | > 100 | – | > 100 | > 100 | > 100 | > 100 | > 100 | > 100 | > 100 | > 100 | > 100 | > 100 | > 100 | –
CC(C)(C)[Si](C)(C)OCC1OC(n2cnc3c(N)ncnc32)CC1O (stereo not drawn) | > 100 | > 100 | > 100 | > 100 | > 100 | – | – | – | > 100 | > 100 | > 100 | > 100 | – | > 100 | > 100 | > 100 | > 100 | > 100 | > 100 | > 100
N#CN=[N+]([O-])c1ccc(C(=O)O)cc1 | 51.9 | 30.1 | > 100 | 33.7 | 32.7 | 32.7 | 35.8 | 40.7 | – | 34 | 34.7 | 33.4 | > 100 | 31.4 | 46.3 | 30.3 | 37.1 | – | – | 40.9
C/C(N=NS(=O)(=O)c1ccccc1)=C1\C=CC=CN1O | > 100 | – | > 100 | > 100 | > 100 | > 100 | > 100 | > 100 | – | > 100 | > 100 | > 100 | > 100 | > 100 | > 100 | > 100 | > 100 | > 100 | > 100 | –
CC1CCC2(O)C3(C)CC4(O)OC2(C1O)C1(O)C3(O)C(OC(=O)c2ccc[nH]2)C(O)(C(C)C)C41C (stereo not drawn) | > 100 | > 100 | > 100 | > 100 | > 100 | > 100 | > 100 | > 100 | > 100 | > 100 | > 100 | > 100 | > 100 | > 100 | > 100 | > 100 | > 100 | > 100 | > 100 | > 100
COc1ccc2nc3cc(Cl)ccc3c(NCCNC(=O)Cn3c(=O)n(C)c(=O)c4c3nc3c(c(=O)n(C)c(=O)n3C)[n+]4[O-])c2c1 | > 100 | > 100 | 61.6 | 56 | > 55.9 | > 100 | > 100 | > 74.6 | > 100 | > 100 | > 100 | > 31.6 | > 100 | > 56.1 | > 65.1 | > 100 | 57 | > 100 | > 100 | > 80.1

— PubChem BioAssay (NCI)
